In US5980933A, “Transdermal formulation of xanomeline” (Eli Liily and Company, priority 1997, dated 1999):

Tests used:
[1] = tested on: muscarinic receptors in the brain; assay: Ex vivo 3H-pirenzepine binding in rat brain after patch application; conditions: after oral administration
Description: The patches prepared as stated herein were applied to rats. The rats were killed in pairs at various time points after application and the rat brains were removed and frozen. The binding of the M1 antagonist ligand, ^3 H-pirenzepine, to muscarinic receptors in the brain was determined. The decrease in binding is indicative of drug or active metabolite present in the brain. The effect of the drug after oral administration lasts less than 6 hours. The percent of control ex vivo pirenzepine binding at 6 hours was 33%, at 12 hours 15%, at 24 hours 26%, and at 48 hours 53%. The mean plasma concentration using this patch formulation was as follows: […]
The patches prepared as stated herein were applied to rats. The rats were killed in pairs at various time points after application and the rat brains were removed and frozen. The binding of the M1 antagonist ligand, ^3 H-pirenzepine, to muscarinic receptors in the brain was determined. The decrease in binding is indicative of drug or active metabolite present in the brain. The effect of the drug after oral administration lasts less than 6 hours. The percent of control ex vivo pirenzepine binding at 6 hours was 101%, at 12 hours 89%, at 24 hours 75%, and at 48 hours 105%.

[2] = Saturation limit of xanomeline in acrylic adhesive; format: physicochemical
Description: The values had been derived from clear solutions of the drug in the adhesive. Unfortunately, the saturation limit of about 23-28% (w/w) in this polymer limits the utilization of this unexpected advantage of highly enriched xanomeline preparations. It is concluded from this unexpected results that an optimum formulation has to contain a slightly subsaturated, saturated or even supersaturated amount of xanomeline for best performance.

saturation limit in this polymer [2]: 23-28 % (w/w)
Structure (SMILES): CCCCCCOc1nsnc1C1=CCCN(C)C1 [xanomeline, 3-[4-(hexyloxy)-1,2,5-thiadiazol-3-yl]-1,2,5,6-tetrahydro-1-methylpyridine]
duration of the effect of the drug [1]: less than 6 hours
